Assay results: patent US11926614B2, “1,2,4-triazole derivatives as tankyrase inhibitors” (priority 2018, dated 2024)
Read-outs that look alike come from different tables or passages of the source.

Key:
[1] = biological target: TNKS2 (Homo sapiens (Human), UniProt Q9H2K2); experiment: Biochemical IC50 TNKS2
Source text: (§1) XLfit (idbs) was used to determine the IC50-values in inhibition experiments. The following formula was chosen to fit the data points (Langmuir Binding Isotherm): fit=((A+(B*x))+4(C−B)*(1−exp((−1*D)*x)))/D)), res=(y−fit)

[2] = test system: HEK293; experiment: Cellular IC50 HEK293; assay type: cell-based
Source text: as §1

[3] = read-out: Biochemical IC50 TNKS2
[4] = Homo sapiens, HEK293, HEK293; read-out: Cellular IC50 HEK293
[5] = Homo sapiens, HEK293, read-out: Cellular IC50 HEK293

TNKS2, sequence (Q9H2K2 whole entry): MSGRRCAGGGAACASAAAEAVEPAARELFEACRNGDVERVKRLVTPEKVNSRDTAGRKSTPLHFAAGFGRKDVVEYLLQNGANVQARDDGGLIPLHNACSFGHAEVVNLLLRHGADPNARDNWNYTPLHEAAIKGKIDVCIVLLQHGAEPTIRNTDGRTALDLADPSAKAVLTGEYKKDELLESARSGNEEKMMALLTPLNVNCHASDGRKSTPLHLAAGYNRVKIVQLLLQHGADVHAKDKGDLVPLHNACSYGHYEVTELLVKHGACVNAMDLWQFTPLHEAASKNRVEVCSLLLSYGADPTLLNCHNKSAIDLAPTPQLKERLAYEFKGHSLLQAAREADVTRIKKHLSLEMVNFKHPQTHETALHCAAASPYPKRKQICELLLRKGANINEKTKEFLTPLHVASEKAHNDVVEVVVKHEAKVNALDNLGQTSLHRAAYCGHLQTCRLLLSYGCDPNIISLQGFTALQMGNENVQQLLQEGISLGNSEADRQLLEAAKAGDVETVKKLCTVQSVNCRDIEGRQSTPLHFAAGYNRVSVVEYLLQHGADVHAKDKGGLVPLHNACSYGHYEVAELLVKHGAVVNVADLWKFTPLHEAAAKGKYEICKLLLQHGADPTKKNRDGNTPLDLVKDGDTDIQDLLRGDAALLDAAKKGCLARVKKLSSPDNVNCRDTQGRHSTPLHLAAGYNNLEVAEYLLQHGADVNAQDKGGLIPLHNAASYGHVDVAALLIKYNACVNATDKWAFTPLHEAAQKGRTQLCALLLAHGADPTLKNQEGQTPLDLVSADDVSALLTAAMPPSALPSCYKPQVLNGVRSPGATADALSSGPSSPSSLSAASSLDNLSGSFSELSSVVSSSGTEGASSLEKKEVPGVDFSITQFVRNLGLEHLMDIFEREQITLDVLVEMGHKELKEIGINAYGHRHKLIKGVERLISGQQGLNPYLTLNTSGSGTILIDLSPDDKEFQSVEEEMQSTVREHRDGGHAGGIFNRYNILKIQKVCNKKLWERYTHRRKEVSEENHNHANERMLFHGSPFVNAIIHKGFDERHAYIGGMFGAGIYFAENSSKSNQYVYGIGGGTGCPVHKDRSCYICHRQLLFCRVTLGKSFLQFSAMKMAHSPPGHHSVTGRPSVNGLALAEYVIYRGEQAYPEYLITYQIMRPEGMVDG

Q: Which results are given for `CCOc1ccc(-c2nnc([C@H]3C[C@H](NC(=O)c4ccn(C)n4)C3)n2-c2ccccc2F)nc1` [Example 120, N-((1S,3r)-3-(5-(5-ethoxypyridin-2-yl)-4-(2-fluorophenyl)-4H-1,2,4-triazol-3-yl)cyclobutyl)-1-methyl-1H-pyrazole-3-carboxamide]?
A: IC50 [1, 3]: 18 nM; IC50 [2, 4]: 65 nM

Q: `O=C(N[C@H]1C[C@H](c2nnc(-c3ccccc3)n2-c2ccccc2F)C1)c1ccccn1` [Example 174, N-((1S,3r)-3-(4-(2-fluorophenyl)-5-phenyl-4H-1,2,4-triazol-3-yl)cyclobutyl)picolinamide] was tested. Which IC50 [1, 3] did it give?
A: 216 nM

Q: What about the IC50 [2, 5] of the same molecule?
A: 789 nM

Q: How did the IC50 [1, 3] turn out when `O=C(N[C@H]1C[C@H](c2nnc(-c3ccncn3)n2-c2ccccc2Cl)C1)c1cccnc1` [Example 9, N-((1S,3r)-3-(4-(2-chlorophenyl)-5-(pyrimidin-4-yl)-4H-1,2,4-triazol-3-yl)cyclobutyl)nicotinamide] was run?
A: 18 nM

Q: And the IC50 [2, 4]?
A: 50 nM

Q: For `Cc1ccc(-n2c(-c3nccs3)nnc2[C@H]2C[C@H](NC(=O)c3ccnc4cccnc34)C2)s1` [Example 89, N-((1r,3r)-3-(4-(5-methylthiophen-2-yl)-5-(thiazol-2-yl)-4H-1,2,4-triazol-3-yl)cyclobutyl)-1,5-naphthyridine-4-carboxamide], which IC50 [1, 3] is on record?
A: 2.7 nM

Q: And the IC50 [2, 4]?
A: 2.4 nM

Q: Which results are given for `CCOc1ccc(-c2nnc([C@H]3C[C@H](NC(=O)c4ccc5cc[nH]c5n4)C3)n2-c2ccccc2F)nc1` [Example 98, N-((1S,3r)-3-(5-(5-ethoxypyridin-2-yl)-4-(2-fluorophenyl)-4H-1,2,4-triazol-3-yl)cyclobutyl)-1H-pyrrolo[2,3-b]pyridine-6-carboxamide]?
A: IC50 [1, 3]: 4.9 nM; IC50 [2, 4]: 14 nM

Q: Which IC50 [1, 3] does the source give for `O=C(NC12CC(c3nnc(-c4ccncn4)n3-c3ccccc3Cl)(C1)C2)c1ccnc2cccnc12` [Example 21, N-(3-(4-(2-chlorophenyl)-5-(pyrimidin-4-yl)-4H-1,2,4-triazol-3-yl)bicyclo[1.1.1]pentan-1-yl)-1,5-naphthyridine-4-carboxamide] here?
A: 1.8 nM

Q: What about the IC50 [2, 4] of the same molecule?
A: 0.5 nM

Q: Which results are given for `COc1ccc(C(=O)N[C@H]2C[C@H](c3nnc(-c4ccncn4)n3-c3ccccc3Cl)C2)nc1` [Example 131, N-((1R,3r)-3-(4-(2-chlorophenyl)-5-(pyrimidin-4-yl)-4H-1,2,4-triazol-3-yl)cyclobutyl)-5-methoxypicolinamide]?
A: IC50 [1, 3]: 4.5 nM; IC50 [2, 4]: 0.66 nM

Q: How did the IC50 [1, 3] turn out when `Cc1cccc(-c2nnc([C@H]3C[C@H](NC(=O)c4ccc5cnccc5n4)C3)n2-c2ccccc2F)n1` [Example 200, N-((1S,3r)-3-(4-(2-fluorophenyl)-5-(6-methylpyridin-2-yl)-4H-1,2,4-triazol-3-yl)cyclobutyl)-1,6-naphthyridine-2-carboxamide] was run?
A: 4 nM

Q: And the IC50 [2, 4]?
A: 12 nM

Q: How did the IC50 [1, 3] turn out when `CCOc1ccc(-c2nnc([C@H]3C[C@H](NC(=O)c4cc5sc(C)cc5[nH]4)C3)n2-c2ccccc2F)nc1` [Example 150, N-((1S,3r)-3-(5-(5-ethoxypyridin-2-yl)-4-(2-fluorophenyl)-4H-1,2,4-triazol-3-yl)cyclobutyl)-2-methyl-4H-thieno[3,2-b]pyrrole-5-carboxamide] was run?
A: 9.5 nM

Q: And the IC50 [2, 4]?
A: 16 nM

Q: Which results are given for `O=C(N[C@H]1C[C@H](c2nnc(-c3ccccc3)n2-c2ccccc2F)C1)c1ccc(F)cn1` [Example 175, 5-fluoro-N-((1S,3r)-3-(4-(2-fluorophenyl)-5-phenyl-4H-1,2,4-triazol-3-yl)cyclobutyl)picolinamide]?
A: IC50 [1, 3]: 150 nM; IC50 [2, 4]: 499 nM

Q: Which results are given for `O=C(NC12CC(c3nnc(-c4ccncn4)n3-c3ccccc3Cl)(C1)C2)c1ccccn1` [Example 22, N-(3-(4-(2-chlorophenyl)-5-(pyrimidin-4-yl)-4H-1,2,4-triazol-3-yl)bicyclo[1.1.1]pentan-1-yl)picolinamide]?
A: IC50 [1, 3]: 3.8 nM; IC50 [2, 4]: 25 nM

Q: What does the source list for `CCOc1ccc(-c2nnc([C@H]3C[C@H](NC(=O)c4ccc(F)cn4)C3)n2-c2ccccc2F)nc1` [Example 59, N-((1S,3r)-3-(5-(5-ethoxypyridin-2-yl)-4-(2-fluorophenyl)-4H-1,2,4-triazol-3-yl)cyclobutyl)-5-fluoropicolinamide]?
A: IC50 [1, 3]: 2.4 nM; IC50 [2, 4]: 9.5 nM

Q: For `[2H]C([2H])([2H])C([2H])([2H])Oc1ccc(-c2nnc([C@H]3C[C@H](NC(=O)c4cccc5cc(F)cnc45)C3)n2-c2ccccc2F)nc1` [Example 141, N-((1S,3r)-3-(5-(5-(ethoxy-d5)pyridin-2-yl)-4-(2-fluorophenyl)-4H-1,2,4-triazol-3-yl)cyclobutyl)-3-fluoroquinoline-8-carboxamide], which IC50 [1] is on record?
A: 2.9 nM

Q: And the IC50 [2, 4]?
A: 1.1 nM

Q: With `CCOc1ccc(-c2nnc([C@H]3C[C@H](NC(=O)c4cc5cc(OC)ncc5[nH]4)C3)n2-c2ccccc2F)nc1` [Example 127, N-((1S,3r)-3-(5-(5-ethoxypyridin-2-yl)-4-(2-fluorophenyl)-4H-1,2,4-triazol-3-yl)cyclobutyl)-5-methoxy-1H-pyrrolo[2,3-c]pyridine-2-carboxamide] as the molecule, how does the IC50 [1, 3] read?
A: 4.3 nM

Q: What about the IC50 [2, 4] of the same molecule?
A: 9.1 nM

Q: For `CCOc1ccc(-c2nnc([C@H]3C[C@H](NC(=O)c4cc5sccc5[nH]4)C3)n2-c2ccccc2F)nc1` [Example 149, N-((1S,3r)-3-(5-(5-ethoxypyridin-2-yl)-4-(2-fluorophenyl)-4H-1,2,4-triazol-3-yl)cyclobutyl)-4H-thieno[3,2-b]pyrrole-5-carboxamide], which IC50 [1, 3] is on record?
A: 7.4 nM

Q: What about the IC50 [2, 4] of the same molecule?
A: 27 nM

Q: Which IC50 [1, 3] does the source give for `CCOc1ccc(-c2nnc([C@H]3C[C@H](NC(=O)c4ccccn4)C3)n2-c2ccc(C)s2)nc1` [Example 81, N-((1r,3r)-3-(5-(5-ethoxypyridin-2-yl)-4-(5-methylthiophen-2-yl)-4H-1,2,4-triazol-3-yl)cyclobutyl)picolinamide] here?
A: 4.6 nM

Q: What about the IC50 [2, 5] of the same molecule?
A: 37 nM

Q: `CCOc1ccc(-c2nnc([C@H]3C[C@H](NC(=O)c4ccc(F)cc4)C3)n2-c2ccccc2)nc1` [Example 70, N-((1r,3r)-3-(5-(5-ethoxypyridin-2-yl)-4-phenyl-4H-1,2,4-triazol-3-yl)cyclobutyl)-4-fluorobenzamide] was tested. Which IC50 [1, 3] did it give?
A: 8.5 nM

Q: And the IC50 [2, 4]?
A: 48 nM

Q: Which results are given for `N#Cc1cccc(C(=O)N[C@H]2C[C@H](c3nnc(-c4ccncn4)n3-c3ccccc3Cl)C2)c1` [Example 132, N-((1R,3r)-3-(4-(2-chlorophenyl)-5-(pyrimidin-4-yl)-4H-1,2,4-triazol-3-yl)cyclobutyl)-3-cyanobenzamide]?
A: IC50 [1, 3]: 6.6 nM; IC50 [2, 4]: 39 nM

Q: Which results are given for `O=C(N[C@H]1C[C@H](c2nnc(-c3cnccn3)n2-c2ccccc2F)C1)c1ccccn1` [Example 91, N-((1S,3r)-3-(4-(2-fluorophenyl)-5-(pyrazin-2-yl)-4H-1,2,4-triazol-3-yl)cyclobutyl)picolinamide]?
A: IC50 [1, 3]: 280 nM; IC50 [2, 5]: 355 nM

Q: What does the source list for `CCOc1ccc(-c2nnc([C@H]3C[C@H](NC(=O)c4cccc(C(C)(C)O)n4)C3)n2-c2ccccc2F)nc1` [Example 129, N-((1S,3r)-3-(5-(5-ethoxypyridin-2-yl)-4-(2-fluorophenyl)-4H-1,2,4-triazol-3-yl)cyclobutyl)-6-(2-hydroxypropan-2-yl) picolinamide]?
A: IC50 [1, 3]: 210 nM; IC50 [2, 4]: 649 nM

Q: Which results are given for `CCOc1ccc(-c2nnc([C@H]3C[C@H](NC(=O)c4cccc5cccnc45)C3)n2-c2ccccc2F)nc1` [Example 60, N-((1S,3r)-3-(5-(5-ethoxypyridin-2-yl)-4-(2-fluorophenyl)-4H-1,2,4-triazol-3-yl)cyclobutyl)quinoline-8-carboxamide]?
A: IC50 [1, 3]: 2.1 nM; IC50 [2, 4]: 1.1 nM

Q: How did the IC50 [1, 3] turn out when `CCOc1ccc(-c2nnc([C@H]3C[C@H](NC(=O)c4cc(C)nc5ncnn45)C3)n2-c2ccccc2F)nc1` [Example 158, N-((1S,3r)-3-(5-(5-ethoxypyridin-2-yl)-4-(2-fluorophenyl)-4H-1,2,4-triazol-3-yl)cyclobutyl)-5-methy-[1,2,4]triazolo[1,5-a]pyrimidine-7-carboxamide] was run?
A: 26 nM

Q: And the IC50 [2, 4]?
A: 44 nM

Q: For `CCOc1ccc(-c2nnc([C@H]3C[C@H](NC(=O)c4ccnc5cccnc45)C3)n2-c2ccc(Cl)s2)nc1` [Example 76, N-((1r,3r)-3-(4-(5-chlorothiophen-2-yl)-5-(5-ethoxypyridin-2-yl)-4H-1,2,4-triazol-3-yl)cyclobutyl)-1,5-naphthyridine-4-carboxamide], which IC50 [1, 3] is on record?
A: 2 nM

Q: What about the IC50 [2, 4] of the same molecule?
A: 1.1 nM

Q: Which results are given for `CCOc1ccc(-c2nnc([C@H]3C[C@H](NC(=O)c4ccc5cnccc5n4)C3)n2-c2ccccc2F)nc1` [Example 97, N-((1S,3r)-3-(5-(5-ethoxypyridin-2-yl)-4-(2-fluorophenyl)-4H-1,2,4-triazol-3-yl)cyclobutyl)-1,6-naphthyridine-2-carboxamide]?
A: IC50 [1, 3]: 2.5 nM; IC50 [2, 4]: 7.5 nM

Q: How did the IC50 [1, 3] turn out when `CCOc1ccc(-c2nnc(C34CC(NC(=O)c5ccnc6cccnc56)(C3)C4)n2-c2cccnc2)nc1` [Example 166, N-(3-(5-(5-ethoxypyridin-2-yl)-4-(pyridin-3-yl)-4H-1,2,4-triazol-3-yl)bicyclo[1.1.1]pentan-1-yl)-1,5-naphthyridine-4-carboxamide] was run?
A: 9.6 nM

Q: What about the IC50 ([2]; Homo sapiens, HEK293; read-out: Cellular IC50 HEK293) of the same molecule?
A: 30 nM

Q: For `CCOc1ccc(-c2nnc([C@H]3C[C@H](NC(=O)c4ccc5ncccc5n4)C3)n2-c2ccccc2F)nc1` [Example 96, N-((1S,3r)-3-(5-(5-ethoxypyridin-2-yl)-4-(2-fluorophenyl)-4H-1,2,4-triazol-3-yl)cyclobutyl)-1,5-naphthyridine-2-carboxamide], which IC50 [1, 3] is on record?
A: 1.5 nM

Q: And the IC50 [2, 5]?
A: 5 nM

Q: `O=C(N[C@H]1C[C@H](c2nnc(-c3nccs3)n2-c2cccnc2)C1)c1cccc2cccnc12` [Example 114, N-((1r,3r)-3-(4-(pyridin-3-yl)-5-(thiazol-2-yl)-4H-1,2,4-triazol-3-yl)cyclobutyl)quinoline-8-carboxamide] was tested. Which IC50 [1, 3] did it give?
A: 20 nM

Q: What about the IC50 [2, 4] of the same molecule?
A: 230 nM

Q: Which results are given for `CCOc1ccc(-c2nnc([C@H]3C[C@H](NC(=O)c4ccnc5cc(F)cnc45)C3)n2-c2ccccn2)nc1` [Example 160, N-((1r,3r)-3-(5-(5-ethoxypyridin-2-yl)-4-(pyridin-2-yl)-4H-1,2,4-triazol-3-yl)cyclobutyl)-7-fluoro-1,5-naphthyridine-4-carboxamide]?
A: IC50 [1, 3]: 22 nM; IC50 [2, 5]: 9 nM
